This note sets out measurements from article PMC2941766 (Molecular pharmaceutics, 2010).

Common to all, as to assay type: in vitro ADME
The target of one data set is T1, UGT1A7 (Homo sapiens, UniProt Q9HAW7).
T1 sequence (Q9HAW7 26-530): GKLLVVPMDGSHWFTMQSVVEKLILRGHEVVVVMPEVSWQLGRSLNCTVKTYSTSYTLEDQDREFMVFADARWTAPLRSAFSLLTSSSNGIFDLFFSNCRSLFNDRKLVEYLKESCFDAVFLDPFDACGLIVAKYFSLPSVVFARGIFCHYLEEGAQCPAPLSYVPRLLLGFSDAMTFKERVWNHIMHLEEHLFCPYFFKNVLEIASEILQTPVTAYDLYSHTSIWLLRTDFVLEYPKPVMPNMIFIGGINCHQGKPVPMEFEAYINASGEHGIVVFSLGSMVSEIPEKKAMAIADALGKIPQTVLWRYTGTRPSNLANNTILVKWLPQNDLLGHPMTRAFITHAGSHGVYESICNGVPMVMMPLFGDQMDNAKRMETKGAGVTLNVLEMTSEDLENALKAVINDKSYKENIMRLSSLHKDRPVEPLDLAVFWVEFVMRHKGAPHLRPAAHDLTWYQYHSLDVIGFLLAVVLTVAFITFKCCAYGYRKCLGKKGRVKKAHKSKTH
The data set can be described thus: Glucuronidation by expressed human UGT1A7. To be noted: UGT1A7, 2.5μM substrate, 37°C.

A further data set has as its target T2, UGT1A9 (Homo sapiens, UniProt O60656).
T2 sequence (O60656 26-530): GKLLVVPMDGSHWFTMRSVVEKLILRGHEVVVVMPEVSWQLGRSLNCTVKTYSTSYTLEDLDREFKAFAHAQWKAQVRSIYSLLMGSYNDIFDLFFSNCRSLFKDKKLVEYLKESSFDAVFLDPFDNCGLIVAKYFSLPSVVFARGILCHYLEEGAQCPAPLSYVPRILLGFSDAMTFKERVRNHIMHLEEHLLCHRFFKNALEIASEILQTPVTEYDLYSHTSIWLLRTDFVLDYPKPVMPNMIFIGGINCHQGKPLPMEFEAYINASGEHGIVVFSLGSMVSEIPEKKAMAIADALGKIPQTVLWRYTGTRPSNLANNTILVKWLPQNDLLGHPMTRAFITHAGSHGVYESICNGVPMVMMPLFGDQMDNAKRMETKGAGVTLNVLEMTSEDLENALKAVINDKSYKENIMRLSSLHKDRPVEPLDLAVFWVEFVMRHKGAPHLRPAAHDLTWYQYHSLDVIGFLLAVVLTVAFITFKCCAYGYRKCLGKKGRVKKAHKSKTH
The data set can be described thus: Glucuronidation by expressed human UGT1A9. To be noted: for glucuronidation rate: UGT1A9, 2.5 μM substrate, 37°C.

The next data set addresses T3, UGT1A1 (Homo sapiens, UniProt P22309).
T3 sequence (P22309 26-533): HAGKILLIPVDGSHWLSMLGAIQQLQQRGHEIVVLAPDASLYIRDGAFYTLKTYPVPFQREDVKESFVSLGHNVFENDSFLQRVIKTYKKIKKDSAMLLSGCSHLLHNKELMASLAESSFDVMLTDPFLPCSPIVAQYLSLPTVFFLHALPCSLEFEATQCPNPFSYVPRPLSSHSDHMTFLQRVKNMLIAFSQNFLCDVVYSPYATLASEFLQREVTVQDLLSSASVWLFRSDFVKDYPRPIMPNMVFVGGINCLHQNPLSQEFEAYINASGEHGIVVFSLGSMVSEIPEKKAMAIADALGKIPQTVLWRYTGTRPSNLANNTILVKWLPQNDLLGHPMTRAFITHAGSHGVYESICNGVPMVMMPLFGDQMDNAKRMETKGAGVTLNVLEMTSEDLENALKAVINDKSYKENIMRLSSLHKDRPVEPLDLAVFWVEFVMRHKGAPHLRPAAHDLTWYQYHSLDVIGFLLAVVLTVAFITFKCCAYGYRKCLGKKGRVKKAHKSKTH
The data set can be described thus: Glucuronidation by expressed human UGT1A1. To be noted: 37°C.

A short description of data set [1]: Glucuronidation by pooled human liver microsomes. The note with it: human liver microsomes, 2.5μM substrate. In general terms: Microsomes from liver hold many membrane-bound enzymes, among them those of drug oxidation.
The target of a further data set is T4, UGT1A10 (Homo sapiens, UniProt Q9HAW8).
T4 sequence (Q9HAW8 26-530): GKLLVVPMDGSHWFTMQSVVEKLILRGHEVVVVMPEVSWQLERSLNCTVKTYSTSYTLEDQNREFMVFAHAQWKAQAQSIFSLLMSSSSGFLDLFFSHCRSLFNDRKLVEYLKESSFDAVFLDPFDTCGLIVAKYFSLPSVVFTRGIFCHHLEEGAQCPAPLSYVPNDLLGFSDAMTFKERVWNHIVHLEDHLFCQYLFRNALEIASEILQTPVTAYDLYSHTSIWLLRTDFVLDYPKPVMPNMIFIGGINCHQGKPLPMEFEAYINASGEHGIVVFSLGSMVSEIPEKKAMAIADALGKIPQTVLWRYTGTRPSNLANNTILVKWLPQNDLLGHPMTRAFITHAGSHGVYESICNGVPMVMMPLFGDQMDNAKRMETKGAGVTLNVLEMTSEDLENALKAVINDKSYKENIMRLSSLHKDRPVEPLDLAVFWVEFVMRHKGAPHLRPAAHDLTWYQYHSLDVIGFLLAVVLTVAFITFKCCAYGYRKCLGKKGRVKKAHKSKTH
The data set can be described thus: Glucuronidation by expressed human UGT1A10. To be noted: UGT1A10, 10 μM substrate, 37°C.

Another data set concerns the target T5, UGT1A8 (Homo sapiens, UniProt Q9HAW9).
T5 sequence (Q9HAW9 26-530): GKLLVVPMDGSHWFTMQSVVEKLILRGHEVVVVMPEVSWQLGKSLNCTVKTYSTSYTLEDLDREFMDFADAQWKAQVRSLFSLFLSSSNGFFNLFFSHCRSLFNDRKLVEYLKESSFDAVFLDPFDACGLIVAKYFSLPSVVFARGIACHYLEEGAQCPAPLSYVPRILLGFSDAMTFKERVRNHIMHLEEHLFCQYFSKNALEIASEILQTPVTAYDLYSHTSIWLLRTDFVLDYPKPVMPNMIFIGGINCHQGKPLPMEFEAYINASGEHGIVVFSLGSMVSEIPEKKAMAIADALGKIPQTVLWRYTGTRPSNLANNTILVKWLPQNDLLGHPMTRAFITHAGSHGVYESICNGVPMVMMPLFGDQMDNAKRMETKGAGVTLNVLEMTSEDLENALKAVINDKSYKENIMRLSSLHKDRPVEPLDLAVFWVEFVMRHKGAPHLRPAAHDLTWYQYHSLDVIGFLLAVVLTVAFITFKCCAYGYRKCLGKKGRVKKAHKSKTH
The data set can be described thus: Glucuronidation by expressed human UGT1A8. The note with it: UGT1A8, 2.5μM substrate, 37°C.

Another data set concerns the target T6, UGT2B7 (Homo sapiens, UniProt P16662).
T6 sequence (P16662 24-529): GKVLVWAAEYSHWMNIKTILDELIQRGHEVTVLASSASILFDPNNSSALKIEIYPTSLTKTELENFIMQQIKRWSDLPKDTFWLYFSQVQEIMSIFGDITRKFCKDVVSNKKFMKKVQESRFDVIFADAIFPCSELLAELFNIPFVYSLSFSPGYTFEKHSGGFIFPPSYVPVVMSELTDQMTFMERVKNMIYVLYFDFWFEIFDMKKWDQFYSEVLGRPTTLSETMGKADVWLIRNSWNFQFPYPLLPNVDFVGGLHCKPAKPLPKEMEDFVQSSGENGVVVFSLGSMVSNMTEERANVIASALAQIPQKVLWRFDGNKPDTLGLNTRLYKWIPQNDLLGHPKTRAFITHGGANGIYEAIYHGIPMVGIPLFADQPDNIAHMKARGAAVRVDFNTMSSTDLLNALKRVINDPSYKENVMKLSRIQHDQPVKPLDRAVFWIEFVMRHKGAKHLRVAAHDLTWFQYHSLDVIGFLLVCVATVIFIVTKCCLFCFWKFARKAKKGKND
The data set can be described thus: Glucuronidation by expressed human UGT2B7. To be noted: for substrate of UGT2B7: UGT2B7, conclusion from fingerprints; for glucuronidation rate: 37°C.

A short description of data set [2]: Glucuronidation by pooled human intestinal microsomes. To be noted: human intestinal microsomes.

Each structure is given as a SMILES string.

Regarding `O=c1cc(-c2ccccc2O)oc2ccccc12` [2′-HF, 2′-hydroxyflavone], the glucuronidation rate on UGT1A7 is 1.13±0.11 nmol per min per mg of protein; on UGT1A9, 0.43±0.06 nmol per min per mg of protein; at UGT1A1 (UGT1A1, 2.5μM substrate) it was 1.28±0.12 nmol per min per mg of protein; in data set [1], 0.97±0.03 nmol per min per mg of protein; on UGT1A10 it was 0.09±0.01 nmol per min per mg of protein; at UGT1A8 it was 1.18±0.26 nmol per min per mg of protein.

Consider `O=c1c(O)c(-c2ccc(O)cc2)oc2ccccc12` [3,4′-diHF, 3,4′-dihydroxyflavone], for which the “substrate of UGT2B7” value on UGT2B7 is recorded as “substrates”.

In the case of `O=c1c(O)c(-c2ccccc2)oc2cccc(O)c12` [3,5-diHF, 3,5-dihydroxyflavone], the “substrate of UGT2B7” value at UGT2B7 was “substrates”.

Turning to `O=c1c(O)c(-c2ccccc2)oc2cc(O)ccc12` [3,7-diHF, 3,7-dihydroxyflavone], the “substrate of UGT2B7” value at UGT2B7 is recorded as “substrates”.

In the case of `O=c1c(O)c(-c2ccccc2)oc2ccccc12` [3-HF, 3-hydroxyflavone], the glucuronidation rate is 8.27±0.15 nmol per min per mg of protein on UGT1A7; 3.03±0.04 nmol per min per mg of protein on UGT1A9; 2.68 ± 0.47 nmol per min per mg of protein at UGT1A1 (UGT1A1, 2.5μM substrate); 3.80±0.21 nmol per min per mg of protein on UGT1A1 (UGT1A1, 10μM substrate); 3.85±0.12 nmol per min per mg of protein at UGT1A1 (UGT1A1, 35μM substrate); 1.39±0.14 nmol per min per mg of protein at UGT2B7 (UGT2B7, 2.5μM substrate). In addition, the glucuronidation rate on UGT2B7 (UGT2B7, 10μM substrate) was 5.35±0.91 nmol per min per mg of protein; at UGT2B7 (UGT2B7, 35μM substrate), 2.19±0.07 nmol per min per mg of protein; in data set [1] it was 5.04±0.48 nmol per min per mg of protein; in data set [2] (2.5 μM substrate), 12.35±1.32 nmol per min per mg of protein; on UGT1A10, 1.37±0.19 nmol per min per mg of protein; at UGT1A8 it was 2.19 ± 0.27 nmol per min per mg of protein. Besides, the “substrate of UGT2B7” value on UGT2B7 is “substrates”. Also, the “magnitude of the difference between fastest and slowest glucuronidation rate” value in data set [2] (2.5 μM, 3-HF vs 5-HF) came to 25 folds.

Take `O=c1cc(-c2cccc(O)c2)oc2ccccc12` [3′-HF, 3′-hydroxyflavone]: the glucuronidation rate at UGT1A7 is on record as 1.44±0.20 nmol per min per mg of protein; at UGT1A9, 0.48±0.13 nmol per min per mg of protein; on UGT1A1 (UGT1A1, 2.5μM substrate), 1.59 ±0.26 nmol per min per mg of protein; in data set [1] it was 3.14±0.01 nmol per min per mg of protein; at UGT1A10, 0.86±0.08 nmol per min per mg of protein; at UGT1A8, 0.27 ±0.02 nmol per min per mg of protein.

Turning to `O=c1cc(-c2ccc(O)cc2)oc2ccccc12` [4′-HF, 4′-hydroxyflavone], the glucuronidation rate on UGT1A7 is recorded as 0 nmol per min per mg of protein; at UGT1A9 it was “not detectable”; at UGT1A1 (UGT1A1, 2.5μM substrate) it was 1.34 ±0.21 nmol per min per mg of protein; in data set [1] it was 0.80±0.05 nmol per min per mg of protein; on UGT1A10 it was 0.30±0.05 nmol per min per mg of protein; at UGT1A8 it was 0.00±0.00 nmol per min per mg of protein. Also, on UGT1A9 (UGT1A9, 35 μM substrate), the “glucuronidation (detectable metabolism)” value is given as “no detectable metabolism”.

Regarding `O=c1cc(-c2ccccc2)oc2ccc(O)cc12` [6-HF, 6-hydroxyflavone], the glucuronidation rate at UGT1A7 is 0 nmol per min per mg of protein; at UGT1A9, 0.10±0.00 nmol per min per mg of protein; on UGT1A1 (UGT1A1, 2.5μM substrate), 1.50±0.18 nmol per min per mg of protein; in data set [1], 0.91±0.04 nmol per min per mg of protein; on UGT1A10, 0.62±0.07 nmol per min per mg of protein; on UGT1A8, 0.87±0.12 nmol per min per mg of protein.

For the compound `O=c1cc(-c2ccccc2)oc2cc(O)ccc12` [7-HF, 7-hydroxyflavone], the glucuronidation rate is given as 0 nmol per min per mg of protein at UGT1A7; 1.30±0.09 nmol per min per mg of protein at UGT1A9; 1.73 ±0.21 nmol per min per mg of protein at UGT1A1 (UGT1A1, 2.5μM substrate); 1.39±0.01 nmol per min per mg of protein in data set [1]; 0.17±0.03 nmol per min per mg of protein at UGT1A10; 0.23±0.03 nmol per min per mg of protein at UGT1A8.
